Where two headings read alike, the source gives them in different places.
What was measured:
[1] = target: T1, estrogen receptor alpha (ESR1) (Homo sapiens, UniProt P03372); test: Breast Cancer Cell ERa High Content Fluorescence Imaging Degradation Assay (Example 901); type: cell-based; settings: Table 1a; MCF7 breast cancer cells, 4 hours; plateau of the maximal effect; DMSO and Fulvestrant define 0% and 100% changes in ESR1
T1 construct: endogenous in cells; host or cells: MCF7 breast cancer cells
T1 sequence (P03372 1-595): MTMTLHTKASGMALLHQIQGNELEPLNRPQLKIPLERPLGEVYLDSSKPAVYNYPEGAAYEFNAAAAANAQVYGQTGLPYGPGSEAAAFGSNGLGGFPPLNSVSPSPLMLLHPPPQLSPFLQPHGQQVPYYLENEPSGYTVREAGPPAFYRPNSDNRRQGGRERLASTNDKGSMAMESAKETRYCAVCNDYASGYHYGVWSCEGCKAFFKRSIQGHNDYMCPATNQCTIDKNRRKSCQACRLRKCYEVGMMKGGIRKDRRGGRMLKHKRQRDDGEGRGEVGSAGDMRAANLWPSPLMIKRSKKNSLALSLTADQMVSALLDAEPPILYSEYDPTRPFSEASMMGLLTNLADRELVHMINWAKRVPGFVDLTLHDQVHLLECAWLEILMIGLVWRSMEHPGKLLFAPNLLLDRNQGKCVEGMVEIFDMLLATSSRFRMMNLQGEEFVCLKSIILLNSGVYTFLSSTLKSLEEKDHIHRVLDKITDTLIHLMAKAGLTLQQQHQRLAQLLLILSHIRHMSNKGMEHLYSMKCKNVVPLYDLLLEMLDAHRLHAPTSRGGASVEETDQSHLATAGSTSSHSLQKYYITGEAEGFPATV
Method in brief: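 MCF7 cells in phenol red-free RPMI with 10% charcoal-stripped FBS, exposed to compound at 0.05–835 nM (10-point, 1.8×, duplicate; 0.84% DMSO) for 4 h at 37 °C. Fixed cells immunostained for ESR1 (F10 mAb, Alexa 488) with Hoechst nuclear mask; nuclear ESR1 intensity imaged per cell. DMSO and 5 nM fulvestrant set 0%/100%; EC50 and Sinf by robust fit.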

[2] = test system: MCF7 cells; test: In vitro cell proliferation assays (Examples 902 and 903), MCF7; type: cell-based; settings: read-out: ER-alpha MCF7 HCS (EC50)

Row | ER-alpha MCF7 HCS (S inf) [1] | EC50 ([2]; Table 1a) | EC50 ([2]; Homo sapiens, MCF7, Table 1a) | Structure (SMILES)
1 | −98.52% | – | 0.019 nM | C[C@@H]1Cc2c([nH]c3ccccc23)[C@@H](c2ccc([C@H](F)C3CN(CCCF)C3)cc2F)N1CC(F)(F)CO [Compound 125, 2,2-difluoro-3-((1R,3R)-1-(2-fluoro-4-((R)-fluoro(1-(3-fluoropropyl)azetidin-3-yl)methyl)phenyl)-3-methyl-1,3,4,9-tetrahydro-2H-pyrido[3,4-b]indol-2-yl)propan-1-ol]
2 | −97.31% | – | 0.088 nM | C[C@@H]1Cc2c([nH]c3ccccc23)[C@@H](c2ccc([C@@H](O)C3CN(CCCF)C3)cc2)N1CC(F)(F)CO [Compound 128, 2,2-difluoro-3-((1R,3R)-1-(4-((S)-(1-(3-fluoropropyl)azetidin-3-yl)(hydroxy)methyl)phenyl)-3-methyl-1,3,4,9-tetrahydro-2H-pyrido[3,4-b]indol-2-yl)propan-1-ol]
3 | −96.45% | – | 0.037 nM | C[C@@H]1Cc2c([nH]c3ccccc23)[C@@H](c2ccc([C@@H](O)C3CN(CCCF)C3)cc2F)N1CC(F)(F)CO [Compound 130, 2,2-difluoro-3-((1R,3R)-1-(2-fluoro-4-((S)-(1-(3-fluoropropyl)azetidin-3-yl)(hydroxy)methyl)phenyl)-3-methyl-1,3,4,9-tetrahydro-2H-pyrido[3,4-b]indol-2-yl)propan-1-ol]
4 | −100% | – | 1.3 nM | C[C@@H]1Cc2c([nH]c3cc(F)ccc23)[C@@H](c2c(F)cc([C@@H](O)C3CN(CCCF)C3)cc2F)N1CC(F)(F)CO [Compound 141, 3-((1R,3R)-1-(2,6-difluoro-4-((S)-(1-(3-fluoropropyl)azetidin-3-yl)(hydroxy)methyl)phenyl)-7-fluoro-3-methyl-1,3,4,9-tetrahydro-2H-pyrido[3,4-b]indol-2-yl)-2,2-difluoropropan-1-ol]
5 | −96.1% | – | 0.26 nM | C[C@@H]1Cc2c([nH]c3ccccc23)[C@@H](c2c(F)cc(C(F)(F)C3CN(CCCF)C3)cc2F)N1CC(C)(C)F [Compound 146, (1R,3R)-1-(4-(Difluoro(1-(3-fluoropropyl)azetidin-3-yl)methyl)-2,6-difluorophenyl)-2-(2-fluoro-2-methylpropyl)-3-methyl-2,3,4,9-tetrahydro-1H-pyrido[3,4-b]indole]

Second part, the molecule before the results:

Row | Structure (SMILES) | ER-alpha MCF7 HCS (S inf) [1] | EC50 ([2]; Table 1a) | EC50 ([2]; Homo sapiens, MCF7, Table 1a)
6 | C[C@@H]1Cc2c([nH]c3ccc(F)cc23)[C@@H](c2c(F)cc(C(O)C3CN(CCCF)C3)cc2F)N1CC(C)(F)CO (stereo partly drawn) [Compound 118, 3-((1R,3R)-1-(2,6-difluoro-4-((1-(3-fluoropropyl)azetidin-3-yl)(hydroxy)methyl)phenyl)-6-fluoro-3-methyl-1,3,4,9-tetrahydro-2H-pyrido[3,4-b]indol-2-yl)-2-fluoro-2-methylpropan-1-ol] | −96.56% | 0.022 nM | –
7 | C[C@@H]1Cc2c([nH]c3ccccc23)[C@@H](c2c(F)cc([C@H](O)C3CN(CCCF)C3)cc2F)N1CC(F)(F)F [Compound 119, (R)-(3,5-difluoro-4-((1R,3R)-3-methyl-2-(2,2,2-trifluoroethyl)-2,3,4,9-tetrahydro-1H-pyrido[3,4-b]indol-1-yl)phenyl)(1-(3-fluoropropyl)azetidin-3-yl)methanol] | −98.93% | – | 0.085 nM
8 | C[C@@H]1Cc2c([nH]c3ccccc23)[C@@H](c2c(F)cc([C@@H](O)C3CN(CCCF)C3)cc2F)N1CC(F)(F)F [Compound 120, (S)-(3,5-difluoro-4-((1R,3R)-3-methyl-2-(2,2,2-trifluoroethyl)-2,3,4,9-tetrahydro-1H-pyrido[3,4-b]indol-1-yl)phenyl)(1-(3-fluoropropyl)azetidin-3-yl)methanol] | −99.17% | – | 0.037 nM
9 | C[C@@H]1Cc2c([nH]c3ccccc23)[C@@H](c2ccc([C@H](F)C3CN(CCCF)C3)cc2)N1CC(F)(F)CO [Compound 123] | −98.38% | – | 0.041 nM
10 | C[C@@H]1Cc2c([nH]c3ccccc23)[C@@H](c2ccc([C@@H](F)C3CN(CCCF)C3)cc2)N1CC(F)(F)CO [Compound 124, 2,2-difluoro-3-((1R,3R)-1-(4-((S)-fluoro(1-(3-fluoropropyl)azetidin-3-yl)methyl)phenyl)-3-methyl-1,3,4,9-tetrahydro-2H-pyrido[3,4-b]indol-2-yl)propan-1-ol] | −96.62% | – | 0.022 nM
11 | C[C@@H]1Cc2c([nH]c3ccccc23)[C@@H](c2ccc([C@@H](F)C3CN(CCCF)C3)cc2F)N1CC(F)(F)CO [Compound 126, 2,2-difluoro-3-((1R,3R)-1-(2-fluoro-4-((S)-fluoro(1-(3-fluoropropyl)azetidin-3-yl)methyl)phenyl)-3-methyl-1,3,4,9-tetrahydro-2H-pyrido[3,4-b]indol-2-yl)propan-1-ol] | −95.71% | – | 0.021 nM
12 | C[C@@H]1Cc2c([nH]c3ccccc23)[C@@H](c2ccc([C@H](O)C3CN(CCCF)C3)cc2)N1CC(F)(F)CO [Compound 127, 2,2-difluoro-3-((1R,3R)-1-(4-((R)-(1-(3-fluoropropyl)azetidin-3-yl)(hydroxy)methyl)phenyl)-3-methyl-1,3,4,9-tetrahydro-2H-pyrido[3,4-b]indol-2-yl)propan-1-ol] | −97.29% | – | 0.071 nM
13 | C[C@@H]1Cc2c([nH]c3ccccc23)[C@@H](c2ccc([C@H](O)C3CN(CCCF)C3)cc2F)N1CC(F)(F)CO [Compound 129, 2,2-difluoro-3-((1R,3R)-1-(2-fluoro-4-((R)-(1-(3-fluoropropyl)azetidin-3-yl)(hydroxy)methyl)phenyl)-3-methyl-1,3,4,9-tetrahydro-2H-pyrido[3,4-b]indol-2-yl)propan-1-ol] | −98.76% | – | 0.034 nM
14 | C[C@@H]1Cc2c([nH]c3cccc(F)c23)[C@@H](c2c(F)cc([C@H](O)C3CN(CCCF)C3)cc2F)N1CC(F)(F)CO [Compound 143, 3-((1R,3R)-1-(2,6-difluoro-4-((R)-(1-(3-fluoropropyl)azetidin-3-yl)(hydroxy)methyl)phenyl)-5-fluoro-3-methyl-3,4-dihydro-1H-pyrido[3,4-b]indol-2(9H)-yl)-2,2-difluoropropan-1-ol] | −101% | – | 0.035 nM
15 | C[C@@H]1Cc2c([nH]c3cccc(F)c23)[C@@H](c2c(F)cc([C@@H](O)C3CN(CCCF)C3)cc2F)N1CC(F)(F)CO [Compound 144, 3-((1R,3R)-1-(2,6-difluoro-4-((S)-(1-(3-fluoropropyl)azetidin-3-yl)(hydroxy)methyl)phenyl)-5-fluoro-3-methyl-3,4-dihydro-1H-pyrido[3,4-b]indol-2(9H)-yl)-2,2-difluoropropan-1-ol] | −101% | – | 0.028 nM
16 | C[C@@H]1Cc2c([nH]c3ccccc23)[C@@H](c2c(F)cc(C(N)C3CN(CCCF)C3)cc2F)N1CC(F)(F)CO (stereo partly drawn) [Compound 145, 3-((1R,3R)-1-(4-(amino(1-(3-fluoropropyl)azetidin-3-yl)methyl)-2,6-difluorophenyl)-3-methyl-3,4-dihydro-1H-pyrido[3,4-b]indol-2(9H)-yl)-2,2-difluoropropan-1-ol] | −103% | – | 0.072 nM
